Source: PubChem BioAssay AID1259407 (Chemical Carcinogenesis Research Information System (CCRIS), 2018)
The source made the active and inactive calls. How the calls were made is not given here.

Test system: CCRIS mutagenicity, Ames/micronucleus/aberration tests
Assay: CCRIS mutagenicity studies

Measured: mutagenic call

Cc1ccccn1
inactive: Test System: AMES SALMONELLA TYPHIMURIUM, Strain/Indicator: TA97, Metabolic Activation: NONE, Method: STANDARD PLATE inactive; negative | Test System: AMES SALMONELLA TYPHIMURIUM, Strain/Indicator: TA97, Metabolic Activation: RAT, LIVER, S-9, AROCLOR 1254, Method: STANDARD PLATE inactive; negative | Test System: AMES SALMONELLA TYPHIMURIUM, Strain/Indicator: TA98, Metabolic Activation: NONE, Method: PREINCUBATION inactive; negative | Test System: AMES SALMONELLA TYPHIMURIUM, Strain/Indicator: TA98, Metabolic Activation: NONE, Method: STANDARD PLATE inactive; negative | Test System: AMES SALMONELLA TYPHIMURIUM, Strain/Indicator: TA98, Metabolic Activation: RAT LIVER S-9, PHENOBARBITAL AND BETA-NAPHTHOFLAVONE, Method: PREINCUBATION inactive; negative | Test System: AMES SALMONELLA TYPHIMURIUM, Strain/Indicator: TA98, Metabolic Activation: RAT, LIVER, S-9, AROCLOR 1254, Method: PREINCUBATION inactive; negative | Test System: AMES SALMONELLA TYPHIMURIUM, Strain/Indicator: TA98, Metabolic Activation: RAT, LIVER, S-9, AROCLOR 1254, Method: STANDARD PLATE inactive; negative | Test System: AMES SALMONELLA TYPHIMURIUM, Strain/Indicator: TA100, Metabolic Activation: NONE, Method: PREINCUBATION inactive; negative | Test System: AMES SALMONELLA TYPHIMURIUM, Strain/Indicator: TA100, Metabolic Activation: NONE, Method: STANDARD PLATE inactive; negative | Test System: AMES SALMONELLA TYPHIMURIUM, Strain/Indicator: TA100, Metabolic Activation: RAT LIVER S-9, PHENOBARBITAL AND BETA-NAPHTHOFLAVONE, Method: PREINCUBATION inactive; negative | Test System: AMES SALMONELLA TYPHIMURIUM, Strain/Indicator: TA100, Metabolic Activation: RAT, LIVER, S-9, AROCLOR 1254, Method: PREINCUBATION inactive; negative | Test System: AMES SALMONELLA TYPHIMURIUM, Strain/Indicator: TA100, Metabolic Activation: RAT, LIVER, S-9, AROCLOR 1254, Method: STANDARD PLATE inactive; negative | Test System: AMES SALMONELLA TYPHIMURIUM, Strain/Indicator: TA102, Metabolic Activation: NONE, Method: PREINCUBATION inactive; negative | Test System: AMES SALMONELLA TYPHIMURIUM, Strain/Indicator: TA102, Metabolic Activation: NONE, Method: STANDARD PLATE inactive; negative | Test System: AMES SALMONELLA TYPHIMURIUM, Strain/Indicator: TA102, Metabolic Activation: RAT LIVER S-9, PHENOBARBITAL AND BETA-NAPHTHOFLAVONE, Method: PREINCUBATION inactive; negative | Test System: AMES SALMONELLA TYPHIMURIUM, Strain/Indicator: TA102, Metabolic Activation: RAT, LIVER, S-9, AROCLOR 1254, Method: PREINCUBATION inactive; negative | Test System: AMES SALMONELLA TYPHIMURIUM, Strain/Indicator: TA102, Metabolic Activation: RAT, LIVER, S-9, AROCLOR 1254, Method: STANDARD PLATE inactive; negative | Test System: AMES SALMONELLA TYPHIMURIUM, Strain/Indicator: TA104, Metabolic Activation: NONE, Method: PREINCUBATION inactive; negative | Test System: AMES SALMONELLA TYPHIMURIUM, Strain/Indicator: TA104, Metabolic Activation: RAT LIVER S-9, PHENOBARBITAL AND BETA-NAPHTHOFLAVONE, Method: PREINCUBATION inactive; negative | Test System: AMES SALMONELLA TYPHIMURIUM, Strain/Indicator: TA1535, Metabolic Activation: NONE, Method: PREINCUBATION inactive; negative | Test System: AMES SALMONELLA TYPHIMURIUM, Strain/Indicator: TA1535, Metabolic Activation: RAT LIVER S-9, PHENOBARBITAL AND BETA-NAPHTHOFLAVONE, Method: PREINCUBATION inactive; negative | Test System: AMES SALMONELLA TYPHIMURIUM, Strain/Indicator: TA1537, Metabolic Activation: NONE, Method: PREINCUBATION inactive; negative | Test System: AMES SALMONELLA TYPHIMURIUM, Strain/Indicator: TA1537, Metabolic Activation: RAT LIVER S-9, PHENOBARBITAL AND BETA-NAPHTHOFLAVONE, Method: PREINCUBATION inactive; negative | Test System: E.COLI, Strain/Indicator: WP2UVRA/PKM101, Metabolic Activation: NONE, Method: PREINCUBATION inactive; negative | Test System: E.COLI, Strain/Indicator: WP2UVRA/PKM101, Metabolic Activation: RAT LIVER S-9, PHENOBARBITAL AND BETA-NAPHTHOFLAVONE, Method: PREINCUBATION inactive; negative | Test System: E.COLI, Strain/Indicator: WP2UVRA, Metabolic Activation: NONE, Method: PREINCUBATION inactive; negative | Test System: E.COLI, Strain/Indicator: WP2UVRA, Metabolic Activation: RAT LIVER S-9, PHENOBARBITAL AND BETA-NAPHTHOFLAVONE, Method: PREINCUBATION inactive; negative
